Measurements from PMC11747885, “Potent inhibitors of the human RNA ligase Rlig1 highlights its role in RNA integrity maintenance under oxidative cellular stress” (Chemical Science, 2025).
Where “and” joins values, the source holds several entries; their conditions need not be identical. Equal entries are not always repeated. Entries after “also recorded” stand apart in the source; their conditions may differ. Where two headings read alike, the source gives them in different places.

What was measured:
HEK293 cells [1] = assay: RNA integrity analysis of HEK293 cells treated with inhibitors and menadione (TapeStation 28S/18S rRNA); assay type: cell-based, human; settings: 30 μM compound 24 h
Rlig1-AMP = target: T1, Rlig1-AMP (Homo sapiens, UniProt Q8N999); assay: Radioactive RNA ligation assay (hit validation, 10 µM test and IC50 determination); assay type: biochemical; settings: for Product formation [%] of RNA ligation, Rlig1: three replicates
T1 construct: made in house; host or cells: E. coli BL21 (DE3), pET15b-Rlig1
T1 sequence (Q8N999 whole entry): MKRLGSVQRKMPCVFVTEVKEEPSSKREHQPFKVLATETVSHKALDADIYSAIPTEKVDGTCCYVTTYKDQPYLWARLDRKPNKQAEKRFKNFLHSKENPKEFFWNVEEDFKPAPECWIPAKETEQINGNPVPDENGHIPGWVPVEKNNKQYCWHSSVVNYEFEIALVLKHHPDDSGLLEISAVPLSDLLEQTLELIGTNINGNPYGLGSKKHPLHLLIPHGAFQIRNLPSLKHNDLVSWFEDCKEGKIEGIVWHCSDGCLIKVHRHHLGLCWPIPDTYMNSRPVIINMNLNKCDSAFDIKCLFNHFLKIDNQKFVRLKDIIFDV

HEK293 cells [2] = assay: Light-microscopy of inhibitor- and menadione-treated HEK293 cells; assay type: cell-based, human; settings: 30 µM compound 24 h, then menadione 5 h
[3] = target: T2, human DNA ligase 1 (hLig1) (Homo sapiens, UniProt P18858); assay: DNA ligation assay with hLig1 and 47 (compound titration); assay type: biochemical; settings: for Product formation [%] of DNA ligation, hlig1: three replicates
T2 construct: made in house; host or cells: E. coli Rosetta BL21 (DE3), pET28a-hLig1
T2 sequence (P18858 whole entry): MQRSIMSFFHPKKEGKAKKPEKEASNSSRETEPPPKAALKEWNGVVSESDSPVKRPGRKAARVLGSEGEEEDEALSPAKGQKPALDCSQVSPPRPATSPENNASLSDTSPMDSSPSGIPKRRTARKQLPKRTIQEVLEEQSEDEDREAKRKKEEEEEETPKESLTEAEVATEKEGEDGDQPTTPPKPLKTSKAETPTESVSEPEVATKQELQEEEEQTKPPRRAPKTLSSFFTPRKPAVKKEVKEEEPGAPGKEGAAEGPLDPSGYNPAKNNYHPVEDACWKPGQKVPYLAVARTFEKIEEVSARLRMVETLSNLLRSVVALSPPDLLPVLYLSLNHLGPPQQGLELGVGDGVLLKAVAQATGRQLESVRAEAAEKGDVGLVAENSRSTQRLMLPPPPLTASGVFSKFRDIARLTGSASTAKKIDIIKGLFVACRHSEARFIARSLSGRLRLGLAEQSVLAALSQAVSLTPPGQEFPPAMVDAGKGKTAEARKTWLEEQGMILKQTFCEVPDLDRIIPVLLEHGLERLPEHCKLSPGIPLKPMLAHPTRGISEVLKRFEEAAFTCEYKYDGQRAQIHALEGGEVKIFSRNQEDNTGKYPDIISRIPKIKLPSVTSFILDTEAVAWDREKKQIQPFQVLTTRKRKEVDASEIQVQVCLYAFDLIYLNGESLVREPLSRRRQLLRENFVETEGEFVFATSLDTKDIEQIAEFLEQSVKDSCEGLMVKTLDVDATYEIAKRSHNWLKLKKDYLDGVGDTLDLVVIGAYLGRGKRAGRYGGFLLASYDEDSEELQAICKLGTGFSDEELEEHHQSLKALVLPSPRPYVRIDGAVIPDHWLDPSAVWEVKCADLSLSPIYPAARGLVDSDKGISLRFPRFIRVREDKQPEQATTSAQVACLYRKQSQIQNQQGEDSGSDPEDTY

in vitro = settings: human
[4] = log(inhibitor) vs. response, variable slope (four parameters)
[5] = Figure 5B, Sigmoidal, 4PL, fit Interrupted

**Q.** What does the source list for Nc1nccc(Nc2ccc(NC(=O)c3ccc(Nc4ncnc5ccccc45)cc3)cc2)n1 [Compound 47]?
**A.** 28S/18S ratio (HEK293 cells [1]; Menadione 0 μM): 3.0; 28S/18S ratio (HEK293 cells [1]; Menadione 40 μM 5 h): 2.1; 28S/18S ratio (HEK293 cells [1]; Menadione 60 μM 5 h): 0.9; inhibition of Rlig1-AMP ligation (urea-PAGE) (Rlig1-AMP; 10 μM compound, 500 nM Rlig1-AMP, 20 min 37 °C): Ligation was inhibited; also recorded: inhibited Rlig1-AMP; Bottom (best-fit value), Rlig1 (Rlig1-AMP; Figure 5B, Sigmoidal, 4PL): 1.324; HillSlope (best-fit value), Rlig1 (Rlig1-AMP; Figure 5B, Sigmoidal, 4PL): -6.786; Span (best-fit value), Rlig1 (Rlig1-AMP; Figure 5B, Sigmoidal, 4PL): 68.62; Top (best-fit value), Rlig1 (Rlig1-AMP; Figure 5B, Sigmoidal, 4PL, X is log(concentration)): 69.95; LogIC50 (best-fit value), Rlig1 (Rlig1-AMP; Figure 5B, Sigmoidal, 4PL, log of µM): 0.6576; IC50 (Rlig1-AMP; Figure 5B, Sigmoidal, 4PL, read-out: IC50 (best-fit value), Rlig1): 4.55 µM; HillSlope (best-fit value) (Rlig1-AMP; four-parameter fit): 6.82; Span (best-fit value) (Rlig1-AMP; four-parameter fit): 92.85; IC50 (Rlig1-AMP; four-parameter fit, n = 3, read-out: IC50 (best-fit value)): 4.54 µM; Product formation [%] of RNA ligation, Rlig1 (Rlig1-AMP; log (47 [µM]) 0.273001): 3.068% and 1.075% and 8.355%; Product formation [%] of RNA ligation, Rlig1 (Rlig1-AMP; log (47 [µM]) 0.574031): 27.5278% and 13.8043% and 34.7122%; Product formation [%] of RNA ligation, Rlig1 (Rlig1-AMP; log (47 [µM]) 0.875061): 98.3243% and 92.1834% and 95.246%; Product formation [%] of RNA ligation, Rlig1 (Rlig1-AMP; log (47 [µM]) 1.17609): 100% and 96.1318% and 97.0084%; Product formation [%] of RNA ligation, Rlig1 (Rlig1-AMP; log (47 [µM]) 1.47712): 100% and 98.2475% and 98.511%; Product formation [%] of RNA ligation, Rlig1 (Rlig1-AMP; log (47 [µM]) -0.0280287): 6.829% and 0.6969% and 9.287%; Product formation [%] of RNA ligation, Rlig1 (Rlig1-AMP; log (47 [µM]) -0.329059): 4.933% and 0% and 8.486%; Product formation [%] of RNA ligation, Rlig1 (Rlig1-AMP; log (47 [µM]) -0.630089): 7.315% and 6.312% and 9.428%; inhibition at 30 µM (Rlig1-AMP; log Compound [µM] 1.47712, replicates I-III, read-out: percentage inhibition (dose response curve for IC50)): 100%; inhibition at 0.234375 µM (Rlig1-AMP; log Compound [µM] -0.630089, replicates I-III, read-out: percentage inhibition (dose response curve for IC50)): 7.32%; LogIC50 (best-fit value) (Rlig1-AMP; log of µM, four-parameter fit): 0.6569; Bottom (best-fit value) (Rlig1-AMP; [4]): 5.434; Top (best-fit value) (Rlig1-AMP; [4]): 98.28; IC50 (Rlig1-AMP; radioactive ligation assay, 500 nM Rlig1-AMP, 20 min 37 °C, n = 3, read-out: IC50): 4.54 µM; cell morphology (HEK293 cells [2]): poor adherence and cell shrinkage; effect on DNA ligase activity (in words) ([3]; 1:2 dilution series starting from 30 μM compound, 500 nM hLig1, 20 min 37 °C): No effect; Bottom (best-fit value), hlig1 [3, 5]: -4.954; HillSlope (best-fit value), hlig1 [3, 5]: -3.033; Span (best-fit value), hlig1 [3, 5]: 97.9; Top (best-fit value), hlig1 [3, 5]: 92.94; LogIC50 (best-fit value), hlig1 ([3]; Figure 5B, Sigmoidal, 4PL, fit Interrupted, log of µM): 1.72; Product formation [%] of DNA ligation, hlig1 ([3]; log (47 [µM]) 0.273001): -3.458% and -4.463% and -2.953%; Product formation [%] of DNA ligation, hlig1 ([3]; log (47 [µM]) 0.574031): -2.567% and -4.108% and -2.802%; Product formation [%] of DNA ligation, hlig1 ([3]; log (47 [µM]) 0.875061): -2.276% and -3.138% and -3.06%; Product formation [%] of DNA ligation, hlig1 ([3]; log (47 [µM]) 1.17609): 0.5458% and -2.902% and -1.203%; Product formation [%] of DNA ligation, hlig1 ([3]; log (47 [µM]) 1.47712): 11.4249% and 9.911% and 18.8699%; Product formation [%] of DNA ligation, hlig1 ([3]; log (47 [µM]) -0.0280287): -3.67% and -4.363% and -3.165%; Product formation [%] of DNA ligation, hlig1 ([3]; log (47 [µM]) -0.329059): -3.453% and -3.785% and -3.456%; Product formation [%] of DNA ligation, hlig1 ([3]; log (47 [µM]) -0.630089): -3.095% and -4.479% and -2.914%; viability at 24 h, 0.234375 µM (in vitro): 109%; viability at 24 h, 0.46875 µM (in vitro): 101%; viability at 24 h, 0.9375 µM (in vitro): 102%; viability at 24 h, 1.875 µM (in vitro): 102%; viability at 24 h, 3.75 µM (in vitro): 97.2%; viability at 24 h, 7.5 µM (in vitro): 97.9%; viability at 24 h, 15 µM (in vitro): 93%; viability at 24 h, 30 µM (in vitro): 86%
